Assay results: article PMC2856487 (Journal of natural products, 2009)
Values after ≈ are worked out from the molar mass of the structure shown.

Experiments:
[1] = system: W2 (chloroquin resistant) strain of P. falciparum; test: in vitro antiplasmodial activity, W2 clone; format: cell-based, Plasmodium falciparum; settings: for IC50: Plasmodium falciparum, W2, 72 h, read-out: W2-clone IC50; for antiplasmodial activity (in words): W2 strain
[2] = system: bentgrass (Agrostis stolonifera); test: initial phytotoxicity bioassay, bentgrass; format: in vivo; settings: for Phytotoxic activity ranking: visual scale 0 to 5, 0 = no effect, 5 = no growth; for growth inhibition (in words): 1 mg/mL (highest concentration)
[3] = system: lettuce (Lactuca sativa cv. L. Iceberg); test: initial phytotoxicity bioassay, lettuce; format: in vivo; settings: for Phytotoxic activity ranking: visual scale 0 to 5, 0 = no effect, 5 = no growth; for growth inhibition (in words): 1 mg/mL (highest concentration)
[4] = system: duckweed (Lemna pausicostata); test: duckweed growth bioassay; format: in vivo; settings: 168 h, read-out: I50, growth of duckweed
cytotoxicity to KB cells = format: cell-based; settings: human
[5] = cytotoxicity to SK-OV-3 cells; format: cell-based; settings: human
[6] = cytotoxicity to BT-549 cells; format: cell-based; settings: human
[7] = system: D6 (chloroquin sensitive) strain of P. falciparum; test: in vitro antiplasmodial activity, D6 clone; format: cell-based, Plasmodium falciparum; settings: for antiplasmodial activity (in words): D6 strain; for IC50: Plasmodium falciparum, D6, 72 h, read-out: D6-clone IC50
[8] = cytotoxicity to LLC-PK11 cells; format: cell-based; settings: pig
[9] = cytotoxicity to SK-MEL cells; format: cell-based; settings: human
[10] = cytotoxicity to Vero cells; format: cell-based; settings: African green monkey, Vero cells (kidney fibroblast)
[11] = system: a number of plant species; settings: cited from earlier work
wheat coleoptile = settings: cited from earlier work
[12] = BT-549 cells (breast ductal carcinoma)
[13] = KB cells (oral epidermal carcinoma)
[14] = LLC-PK11 cells (kidney epithelial)
[15] = SK-OV-3 cells (ovary carcinoma)

Structure (SMILES) | IC50 [1] [mg/L] | Phytotoxic activity ranking ([2]; 0.001 mg/mL) | Phytotoxic activity ranking ([2]; 0.01 mg/mL) | Phytotoxic activity ranking ([2]; 0.1 mg/mL) | Phytotoxic activity ranking ([2]; 1.0 mg/mL) | Phytotoxic activity ranking ([3]; 0.001 mg/mL) | Phytotoxic activity ranking ([3]; 0.01 mg/mL) | Phytotoxic activity ranking ([3]; 0.1 mg/mL) | Phytotoxic activity ranking ([3]; 1.0 mg/mL) | IC50 [7] [mg/L] | also measured
CCN(CC)CCCC(C)Nc1ccnc2cc(Cl)ccc12 (centres unmarked) [chloroquine, reference compound] | 0.1 (≈ 0.313 µM) |  |  |  |  |  |  |  |  |  | 
C[C@@]12C[C@@H](O)C[C@]3(C)C4=CC(=O)OC[C@]45O[C@@H]5[C@@H](OC1=O)C23 (some centres unmarked) [Compound 4] | 0.82 (≈ 2.68 µM) | 0 | 2 | 5 | 5 | 0 | 3 | 5 | 5 |  | 
C[C@]12C=CC[C@]3(C)C(=O)O[C@@H](C13)[C@H]1O[C@]13COC(=O)C=C32 (some centres unmarked) [Compound 2] |  | 1 | 4 | 5 | 5 | 0 | 3 | 5 | 5 |  | IC50 [4]: 0.39 to 0.95 µM; IC50 at 48 h (cytotoxicity to KB cells): > 10 mg/L; IC50 at 48 h [5]: > 10 mg/L
C[C@@]12CC[C@@H](O)[C@]3(C)C(=O)O[C@H](C=C4COC(=O)C=C41)C23 (some centres unmarked) [Compound 8] |  | 0 | 0 | 3 | 5 | 0 | 0 | 2 | 5 |  | growth inhibition (in words) [2]: total inhibition of growth; IC50 at 48 h [6]: > 10 mg/L; antiplasmodial activity (in words) [7]: inactive; antiplasmodial activity (in words) [1]: inactive; growth inhibition (in words) [3]: total inhibition of growth; IC50 at 48 h (cytotoxicity to KB cells): > 10 mg/L; IC50 at 48 h [8]: > 10 mg/L; IC50 at 48 h [9]: > 10 mg/L; IC50 at 48 h [5]: > 10 mg/L
C[C@]12CCC[C@](C)(C(=O)O)[C@@H]1C=C[C@]1(O)COC(=O)C[C@H]21 [Compound 12, oidiolactone-E] |  | 0 | 1 | 4 | 5 | 0 | 2 | 4 | 5 |  | 
C[C@@]12CC[C@@H](O)[C@]3(C)C4=CC(=O)OC[C@]45O[C@@H]5[C@@H](OC1=O)C23 (some centres unmarked) [Compound 5] |  | 0 | 4 | 5 | 5 | 1 | 4 | 5 | 5 |  | IC50 at 48 h [6, 12]: > 10 mg/L; antiplasmodial activity (in words) [7]: inactive; antiplasmodial activity (in words) [1]: inactive; IC50 at 48 h (cytotoxicity to KB cells; [13]): > 10 mg/L; IC50 at 48 h [8, 14]: > 10 mg/L; IC50 at 48 h [5, 15]: > 10 mg/L
C=C1C(O)CC2[C@](C)(CCC[C@]2(C)C(=O)O)C1CC(=O)O (some centres unmarked) [Compound 13] | > 4.76 | 0 | 0 | 0 | 0 | 0 | 0 | 0 | 1 | > 4.76 | growth inhibition (in words) [2]: inactive; IC50 at 48 h [6, 12]: > 10 mg/L; antiplasmodial activity (in words) [7]: inactive; antiplasmodial activity (in words) [1]: inactive; growth inhibition (in words) [3]: inactive; IC50 at 48 h (cytotoxicity to KB cells; [13]): > 10 mg/L; IC50 at 48 h [8, 14]: > 10 mg/L; IC50 at 48 h ([9]; SK-MEL cells (malignant melanoma)): > 10 mg/L; IC50 at 48 h [5, 15]: > 10 mg/L; IC50 at 48 h [10]: > 4.76 mg/L
C[C@@]12CC[C@@H](O)[C@]3(C)C4=CC(=O)OCC4=C[C@@H](OC1=O)C23 (some centres unmarked) [Compound 10] |  | 0 | 1 | 5 | 5 | 0 | 1 | 5 | 5 |  | 
C[C@@]12CCC[C@]3(C)C4=CC(=O)OCC4=C[C@@H](OC1=O)C23 (some centres unmarked) [Compound 11] |  | 0 | 3 | 5 | 5 | 0 | 2 | 5 | 5 |  | IC50 [4]: 0.39 to 0.95 µM; phytotoxicity (in words) [11]: potent phytotoxin
C[C@]12C=C[C@H](O)[C@]3(C)C(=O)O[C@@H](C13)[C@H]1O[C@]13COC(=O)C=C32 (some centres unmarked) [Compound 1] |  |  | 4 | 5 | 5 |  | 5 | 5 | 5 |  | 
C[C@]12CC[C@@H](O)[C@]3(C)C(=O)O[C@@H](C13)[C@H]1O[C@]13COC(=O)C=C32 (some centres unmarked) [Compound 3] | > 4.76 | 0 | 0 | 4 | 5 | 0 | 0 | 4 | 5 | > 4.76 | growth inhibition (in words) [2]: total inhibition of growth; IC50 at 48 h [6]: > 10 mg/L; antiplasmodial activity (in words) [7]: inactive; antiplasmodial activity (in words) [1]: inactive; growth inhibition (in words) [3]: total inhibition of growth; IC50 at 48 h (cytotoxicity to KB cells): > 10 mg/L; IC50 at 48 h [8]: > 10 mg/L; IC50 at 48 h [9]: > 10 mg/L; IC50 at 48 h [5]: > 10 mg/L
C[C@@]12C[C@@H](O)C[C@]3(C)C4=CC(=O)OCC4=C[C@@H](OC1=O)C23 (some centres unmarked) [Compound 9] | 0.084 (≈ 0.289 µM) | 2 | 3 | 5 | 5 |  | 2 | 5 | 5 | 0.097 (≈ 0.334 µM) | inhibition of wheat coleoptile elongation (in words) (wheat coleoptile): weak inhibitor
C[C@@]12C=CC[C@]3(C)C(=O)O[C@H](C=C4COC(=O)C=C41)C23 (some centres unmarked) [Compound 7] |  | 0 |  | 5 | 5 | 0 | 1 | 5 | 5 | 0.17 (≈ 0.624 µM) | IC50 [4]: 0.39 to 0.95 µM
C[C@@]12C=C[C@H](O)[C@]3(C)C(=O)O[C@H](C=C4COC(=O)C=C41)C23 (some centres unmarked) [Compound 6] |  | 0 | 4 | 5 | 5 | 0 | 5 | 5 | 5 | 0.043 (≈ 0.149 µM) | IC50 [4]: 0.39 to 0.95 µM
